Assay results: publication PMC9421654, “Discovery of Substituted Di(pyridin-2-yl)-1,2,4-thiadiazol-5-amines as Novel Macrofilaricidal Compounds for the Treatment of Human Filarial Infections” (Journal of Medicinal Chemistry, 2022)
“And” between values parts separate entries of the source, which are not always exact repeats. Equal values may be shown once. Read-outs that look alike come from different tables or passages of the source. Marks after values point to notes of the source that are not given here.

Assays:
[1] = Liver S9 metabolic stability assay, human; type: in vitro ADME; settings: 3 μM, 60 min
Outline: (§1)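 Rat and human liver S9 (0.75 and 1.2 mg/ml) with 1 mM NADPH, 0.5 mM UDPGA, 2.5 mM GSH, 0.05 mg/ml PAPS, 3µM substrate, 60 min at 37 °C in Tris/MgCl2 pH 7.4. Mouse microsomes 0.3 mg/mL, 1 mM NADPH, 3µM, 30 min, phosphate pH 7.4. LC-MS/MS, % remaining, triplicate.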

[2] = Liver S9 metabolic stability assay, rat; type: in vitro ADME; settings: 3 μM, 60 min
Outline: as §1

[3] = tested on: O. gutturosa adult male worms; test: O. gutturosa adult worm ex vivo assay, motility; type: cell-based, Onchocerca gutturosa; settings: Onchocerca gutturosa
Outline: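 Adult male O. gutturosa from naturally infected cattle were cultured in supplemented MEM at 37 °C, 5% CO2, with four worms per concentration in serial 1-in-4 dilutions. Motility (0–10 scale) was scored every 24 h to 120 h. EC50 (geomean, n=2) for motility reduction came from 4PL fits, and viability was checked by MTT at 120 h.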

Mouse pharmacokinetics = type: in vivo; settings: for Vd: in vivo, read-out: Vdss; for Vd / Cl: IV 2 mg/kg; for bioavailability: PO 10 mg/kg vs IV 2 mg/kg
Description: All animal experiments were approved by the Institutional Animal Care and Use Committee (IACUC) of Bristol Myers Squibb.

O. volvulus L5 larvae = test: O. volvulus L5 ex vivo assay, motility; type: cell-based; settings: Onchocerca volvulus, 504 h, read-out: O. volvulus L5 % inhibition of motility
Description: O. volvulus larvae (L4) were prepared using cryopreserved O. volvulus L3 cultured in a medium containing 1:1 NCTC-109 and IMDM (Iscove’s modified Dulbecco’s medium) supplemented with Glutamax (1×) and 2× Antibiotic-Antimycotic (Life Technologies). This culturing medium was then added in transwell 24-well plates containing human umbilical vein endothelial cell (HUVEC) monolayers, containing the L4 larvae. A week prior to conducting an assay, the cultured O. volvulus larvae (L5) were transferred into a Petri dish containing fresh medium. Aliquots of 8–10 worms were retrieved from the Petri dish and placed inside new transwells over newly seeded HUVEC monolayers in the medium described above. After the transfer of O. volvulus L5 to the plates, the test compounds were dissolved in DMSO, added to each well, and incubated at 37 °C in a 5% CO2. The media containing freshly prepared compounds were partially replaced every 2–3 days for 14 days. After 14 days, the media were completely replaced. The untreated control contains the media described above with a final concentration of 0.05% DMSO. The motility was measured every 2–3 days with the following scale: 100% motility, constant coiling movement; 75% motility, slower coiling; 50% motility, slow and intermittent movement; 25% motility, very slow movement or twitching; and 0% motility, no movement. The motility was measured visually by two operators. On day 28, the viability of O. volvulus L5 was measured by MTT. Following washout and incubation during 1 h in PBS under 5% CO2, worms were observed under an inverted microscope. Worms were considered dead if no staining or less than 50% within the worm was observed. Otherwise, if worms stained blue or more than 50% stained, then they are considered alive. All test treatments were performed in duplicates. Significance was determined using a t test.

[4] = target: T1, hERG potassium channels (KCNH2, expressed in HEK293 cells) (Homo sapiens, UniProt Q12809); test: hERG inhibition; type: cell-based
T1 construct: expressed in transfected cells
T1 sequence (Q12809 whole entry): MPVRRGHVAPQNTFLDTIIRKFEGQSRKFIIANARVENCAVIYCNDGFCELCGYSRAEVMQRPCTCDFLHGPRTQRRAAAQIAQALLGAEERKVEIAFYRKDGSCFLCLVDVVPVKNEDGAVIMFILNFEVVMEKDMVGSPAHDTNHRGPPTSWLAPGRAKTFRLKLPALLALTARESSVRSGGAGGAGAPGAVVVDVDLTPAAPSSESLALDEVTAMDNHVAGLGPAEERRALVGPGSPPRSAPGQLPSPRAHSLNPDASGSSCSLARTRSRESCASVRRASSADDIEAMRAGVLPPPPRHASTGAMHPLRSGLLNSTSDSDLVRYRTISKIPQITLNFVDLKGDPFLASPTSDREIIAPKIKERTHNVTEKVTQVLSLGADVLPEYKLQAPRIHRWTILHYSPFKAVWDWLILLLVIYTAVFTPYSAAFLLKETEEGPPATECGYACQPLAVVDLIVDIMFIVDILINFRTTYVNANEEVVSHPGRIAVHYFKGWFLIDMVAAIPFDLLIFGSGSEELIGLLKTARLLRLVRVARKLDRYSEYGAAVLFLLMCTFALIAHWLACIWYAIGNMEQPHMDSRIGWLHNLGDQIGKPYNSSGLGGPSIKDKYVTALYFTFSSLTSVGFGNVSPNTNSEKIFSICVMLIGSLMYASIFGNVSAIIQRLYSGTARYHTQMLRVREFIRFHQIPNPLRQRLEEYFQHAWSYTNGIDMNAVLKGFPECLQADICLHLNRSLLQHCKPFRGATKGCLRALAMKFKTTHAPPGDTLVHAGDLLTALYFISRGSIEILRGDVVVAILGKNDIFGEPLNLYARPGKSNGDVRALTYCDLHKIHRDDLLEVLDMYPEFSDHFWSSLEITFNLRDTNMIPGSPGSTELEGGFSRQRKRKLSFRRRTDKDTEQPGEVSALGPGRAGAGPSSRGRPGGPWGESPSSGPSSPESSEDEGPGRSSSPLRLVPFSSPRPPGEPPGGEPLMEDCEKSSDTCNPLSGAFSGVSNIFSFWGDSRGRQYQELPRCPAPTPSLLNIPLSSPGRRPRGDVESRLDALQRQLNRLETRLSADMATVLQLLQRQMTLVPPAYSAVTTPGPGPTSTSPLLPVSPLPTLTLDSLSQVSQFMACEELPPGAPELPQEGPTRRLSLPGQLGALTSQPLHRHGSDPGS

[5] = read-out: O. gutturosa EC50 μM (SD), ex vivo adult worm motility reduction, SD in brackets
[6] = read-out: O. gutturosa EC50 (uM) motility inhibition, supplement, SD in brackets in the PDF table
[7] = male CD-1 mouse, PO 30 mg/kg suspension
[8] = read-out: O. gutturosa EC50, adult worm motility, bound stated
[9] = male CD-1 mouse, PO 10 mg/kg suspension
[10] = plasma, male CD-1 mouse, PO 10 mg/kg suspension, read-out: Tmax
[11] = female BALB/c mouse, PO 30 mg/kg

In the case of `CC(C)Oc1ccc(-c2nsc(Nc3ncccc3C(C)C)n2)nc1` [Compound 25, 3-(5-Isopropoxy-2-pyridyl)-N-(3-isopropyl-2-pyridyl)-1,2,4-thiadiazol-5-amine], the “Human S9 metabolic stability” value [1] is reported as 99 % remaining, the “Rat S9 metabolic stability” value [2] is reported as 82 % remaining and the EC50 [3, 5] is reported as 0.1 µM. The EC50 [3, 6] was 0.099 µM, the “AUC(0-inf)” value (Mouse pharmacokinetics; [7]) was 20.0 ± 9.9 µM·h and the Cmax (Mouse pharmacokinetics; [7]) was 2050 ± 270 nM. For the same compound, the Tmax (Mouse pharmacokinetics; [7]) was 2.4 ± 3.8 h.

With `Cc1cccnc1Nc1nc(-c2ccc(OC3CC3)cn2)ns1` [Compound 11, 3-(5-Cyclopropoxypyridin-2-yl)-N-(3-methylpyridin-2-yl)-1,2,4-thiadiazol-5-amine] the “Human S9 metabolic stability” value [1] was 76 % remaining, the inhibition at 1 µM (O. volvulus L5 larvae) was 100% and the “Rat S9 metabolic stability” value [2] was 61 % remaining. The EC50 [3, 5] was 0.11 µM, the EC50 [3, 6] was 0.106 µM and the IC50 ([4]; supplement) was > 30000 nM.

`CC(C)Oc1ccc(-c2nsc(Nc3ncccc3N(C)C(=O)C3CC3)n2)nc1` [Compound 50, N-(2-((3-(5-Isopropoxypyridin-2-yl)-1,2,4-thiadiazol-5-yl)amino)pyridin-3-yl)-N-methylcyclopropanecarboxamide] gave an inhibition at 1 µM (O. volvulus L5 larvae; Day 21, 1 uM) of 100%, an EC50 [3, 5] of 0.56 µM and an EC50 [3, 6] of 0.55 µM. The Kp (Mouse pharmacokinetics; male, CD-1, mouse, brain and plasma, brain to plasma ratio, dose not given, read-out: [b]/[p]) was 0.11.

With `Cc1cccnc1Nc1nc(-c2ccc(OC(C)C)cn2)ns1` [Compound 10, 3-(5-Isopropoxypyridin-2-yl)-N-(3-methylpyridin-2-yl)-1,2,4-thiadiazol-5-amine] the “Human S9 metabolic stability” value [1] was 100 % remaining, the “Rat S9 metabolic stability” value [2] was 100 % remaining and the EC50 [3, 5] was 0.06 µM. The EC50 [3, 6] was 0.055 µM, the EC50 [3, 8] was < 0.1 µM and the “AUC(0-inf)” value (Mouse pharmacokinetics; [7]) was 26.0 ± 9.0 µM·h. For the same compound, the Cmax (Mouse pharmacokinetics; [7]) was 8260 ± 2600 nM, the Tmax (Mouse pharmacokinetics; [7]) was 1.0 ± 0.6 h and the IC50 ([4]; supplement) was > 30000 nM.

With `Cc1ccnc(-c2nsc(Nc3ncccc3C(F)(F)F)n2)c1` [Compound 26, 3-(4-Methylpyridin-2-yl)-N-(3-(trifluoromethyl)pyridin-2-yl)-1,2,4-thiadiazol-5-amine] the “Human S9 metabolic stability” value [1] was 56 % remaining, the “Rat S9 metabolic stability” value [2] was 61 % remaining and the EC50 [3, 5] was 0.03 µM. For the same compound, the EC50 [3, 6] was 0.029 µM and the IC50 ([4]; supplement) was > 30000 nM.

Work on `CC(=O)N(C)c1cccnc1Nc1nc(-c2ccc(OC(C)C)cn2)ns1` [Compound 47, N-(2-((3-(5-Isopropoxypyridin-2-yl)-1,2,4-thiadiazol-5-yl)amino)pyridin-3-yl)-N-methylacetamide] yielded an inhibition at 1 µM (O. volvulus L5 larvae; Day 21, 1 uM) of 100%, an EC50 [3, 5] of 1.07 µM and a Kp (Mouse pharmacokinetics; brain and plasma, male CD-1 mouse, PO 30 mg/kg, based on AUC0-t, read-out: brain/plasma [b]/[p]) of 0.08. For the same compound, the Vd (Mouse pharmacokinetics; male CD-1 mouse) was 0.74 ± 0.08 L/kg, the Cl (Mouse pharmacokinetics; male CD-1 mouse) was 3.6 ± 0.22 mL/min/kg and the “AUC(0-inf)” value (Mouse pharmacokinetics; [9]) was 68.1NC ^j μM·h. The Cmax (Mouse pharmacokinetics; [9]) was 5270 ± 830 nM, the “AUC(0-inf)” value (Mouse pharmacokinetics; [7]) was 121 ^h μM·h and the Cmax (Mouse pharmacokinetics; [7]) was 13900 nM. For the same compound, the Tmax (Mouse pharmacokinetics; [7]) was 0.50 ^h, the Tmax (Mouse pharmacokinetics; [10]) was 4 ± 2.8 h and the bioavailability (Mouse pharmacokinetics; plasma, male CD-1 mouse) was 57%.

For `CC(C)c1ccnc(-c2nsc(Nc3cc(C(F)(F)F)ccn3)n2)c1` [Compound 35, 3-(4-Isopropylpyridin-2-yl)-N-(4-(trifluoromethyl)pyridin-2-yl)-1,2,4-thiadiazol-5-amine], the “Human S9 metabolic stability” value [1] was 65 % remaining, the “Rat S9 metabolic stability” value [2] was 45 % remaining and the EC50 [3, 5] was 0.05 µM. For the same compound, the Cmax (Mouse pharmacokinetics; [7]) was 210 ± 20 nM, the Tmax (Mouse pharmacokinetics; [7]) was 1.8 ± 1.7 h and the “AUC(0-inf)” value (Mouse pharmacokinetics; male CD-1 mouse, PO 30 mg/kg suspension, 30 mg/kg) was 1.7 µM·h and 1.73 ± 0.59 µM·h.

For `CC(C)c1ccnc(-c2nsc(Nc3ncccc3C(F)(F)F)n2)c1` [Compound 27], the “Human S9 metabolic stability” value [1] was 45 % remaining, the inhibition at 1 µM (O. volvulus L5 larvae) was 100% and the “Rat S9 metabolic stability” value [2] was 27 % remaining. The EC50 [3, 5] was 0.01 µM and the EC50 [3, 8] was < 0.1 µM.

For `CNc1cccnc1Nc1nc(-c2ccc(OC(C)C)cn2)ns1` [Compound 30], the “Human S9 metabolic stability” value [1] was 86 % remaining, the “Rat S9 metabolic stability” value [2] was 73 % remaining and the EC50 [3, 5] was 0.22 µM. For the same compound, the EC50 [3, 6] was 0.219 µM and the IC50 ([4]; supplement) was 16000 nM.

With `Cc1cccnc1Nc1nc(-c2ccc(OC3CC4(C3)CN(C3CC3)C4)cn2)ns1` [Compound 12, 3-[5-[(2-Cyclopropyl-2-azaspiro[3.3]heptan-6-yl)oxy]-2-pyridyl]-N-(3-methyl-2-pyridyl)-1,2,4-thiadiazol-5-mine] the “Human S9 metabolic stability” value [1] was 58 % remaining, the “Rat S9 metabolic stability” value [2] was 53 % remaining and the EC50 [3, 5] was 0.39 µM. It also gave an EC50 [3, 6] of 0.393 µM, an IC50 [4] of 203 nM and an IC50 ([4]; supplement) of 200 nM.

For `CC(C)Oc1ccc(-c2nsc(Nc3ncccc3N(C)C)n2)nc1` [Compound 31, N^2-(3-(5-Isopropoxypyridin-2-yl)-1,2,4-thiadiazol-5-yl)-N3,N3-dimethylpyridine-2,3-diamine], the “Human S9 metabolic stability” value [1] was 86 % remaining, the inhibition at 1 µM (O. volvulus L5 larvae) was 100% and the “Rat S9 metabolic stability” value [2] was 79 % remaining. The EC50 [3, 5] was 0.08 µM, the EC50 [3, 6] was 0.083 µM and the Kp at 2 h (Mouse pharmacokinetics; brain and plasma, female BALB/c mouse, PO 30 mg/kg, 2 h, read-out: brain/plasma [b]/[p]) was 1.1. The “AUC(0-inf)” value (Mouse pharmacokinetics; [11]) was 4.66 ± 0.54 µM·h, the Cmax (Mouse pharmacokinetics; [11]) was 5180 nM and the Tmax (Mouse pharmacokinetics; [11]) was 0.5 h. The Vd (Mouse pharmacokinetics; male CD-1 mouse) was 3.01 L/kg, the Cl (Mouse pharmacokinetics; male CD-1 mouse) was 62.9 mL/min/kg and the “AUC(0-inf)” value (Mouse pharmacokinetics; [9]) was 0.94 ^h μM·h. It also gave a Cmax (Mouse pharmacokinetics; [9]) of 650 nM, a Tmax (Mouse pharmacokinetics; [10]) of 0.5 h and a bioavailability (Mouse pharmacokinetics; plasma, male CD-1 mouse) of 13%. For the same compound, the IC50 ([4]; supplement) was 8000 nM.

With `Cc1cccnc1Nc1nc(-c2ccc(OC3CCN(C4CC4)CC3)cn2)ns1` [Compound 19, 3-[5-[(1-Cyclopropyl-4-piperidyl)oxy]-2-pyridyl]-N-(3-methyl-2-pyridyl)-1,2,4-thiadiazol-5-amine] the “Human S9 metabolic stability” value [1] was 83 % remaining, the “Rat S9 metabolic stability” value [2] was 76 % remaining and the EC50 [3, 5] was 0.06 µM. The EC50 [3, 6] was 0.064 µM, the “AUC(0-inf)” value (Mouse pharmacokinetics; [7]) was 6.23 ± 6.16 µM·h and the Cmax (Mouse pharmacokinetics; [7]) was 2080 ± 1220 nM. For the same compound, the Tmax (Mouse pharmacokinetics; [7]) was 0.5 ± 0.0 h and the IC50 [4] was 3460 nM.

With `CN(C)c1cccnc1Nc1nc(-c2ccc(OC3CC3)cn2)ns1` [Compound 32] the “Human S9 metabolic stability” value [1] was 100 % remaining, the inhibition at 1 µM (O. volvulus L5 larvae) was 100% and the “Rat S9 metabolic stability” value [2] was 91 % remaining. For the same compound, the EC50 [3, 5] was 0.74 µM, the EC50 [3, 6] was 0.743 µM and the “AUC(0-inf)” value (Mouse pharmacokinetics; [7]) was 3.85 ± 0.76 µM·h. For the same compound, the Cmax (Mouse pharmacokinetics; [7]) was 2340 ± 520 nM and the Tmax (Mouse pharmacokinetics; [7]) was 0.5 ± 0.00 h.
